How the values were obtained:
[1] = tested on: primary human neurons; assay: LysoTracker labeling of lysosomes in primary human neurons; format: cell-based; details: 25 μM gemfibrozil and 10 μM fenofibrate, 24 hours
From the text: (§1) DAPI was used to visualize nuclei. Results represent 3 independent experiments.

[2] = tested on: lysosome-associated membrane protein 2 (LAMP2); assay: Double-labeling for LAMP2 and β-tubulin in human neurons; format: cell-based; details: 25 μM gemfibrozil and 10 μM fenofibrate, 24 hours
From the text: as §1

[3] = tested on: TPP1; assay: Immunofluorescence for TPP1 in mouse primary neurons; format: cell-based; details: mouse neurons from cortex, hippocampus, and striatum; 25 μM gemfibrozil and 10 μM fenofibrate, 24 hrs
Description: Following four 15 minute washes with filtered PBS, cells were incubated for 4-5 min with 4′, 6-diamidino-2-phenylindole (DAPI, 1:10,000; Sigma).

[4] = tested on: CLN2 (−/−) mouse; assay: Survival (Kaplan-Meier) of CLN2 (−/−) mice; format: in vivo; details: oral 7.5 mg/kg body weight/day from 4 weeks of age
From the text: Treatment was started from 4 weeks of age for all groups. Methyl cellulose was used as vehicle. Top panel: Schematic representation of experiments performed. Bottom panel: Kaplan-Meier plot for percentage survival of treated vs. vehicle or untreated animals.

[5] = tested on: primary human astrocytes; assay: LysoTracker labeling of lysosomes in primary human astrocytes; format: cell-based; details: 25 μM gemfibrozil and 10 μM fenofibrate, 24 hrs
From the text: as §1

[6] = tested on: CLN2 (−/−) mice; assay: Motor activity monitoring of CLN2 (−/−) mice; format: in vivo, mouse; details: after 2 weeks and 6 weeks of gemfibrozil treatment
Description: Each animal was allowed 5 mins of adaptation time followed by monitoring for 5 min. *p-value<0.05. n=15 (untreated), n=20 (treated)

[7] = tested on: TPP1; assay: Western blot and densitometric analysis of TPP1 in mouse primary astrocytes; format: cell-based
Description: Astroglia were isolated from mixed glial cultures as described (17,18) according to the procedure of Giulian and Baker (19). Briefly, on day 9, the mixed glial cultures were washed three times with Dulbecco's modified Eagle's medium/F-12 and subjected to shaking at 240 rpm for 2 h at 37° C. on a rotary shaker to remove microglia. After 2 days, the shaking was repeated for 24 h for the removal of oligodendroglia and to ensure the complete removal of all nonastroglial cells. The attached cells were seeded onto new plates for further studies.
Western blotting was conducted as described earlier (27,28) with modifications. Briefly, cells were scraped in double-distilled H20 and sodium dodecyl sulfate (SDS), electrophoresed on NuPAGE® Novex® 4-12% Bis-Tris gels (Invitrogen) and proteins transferred onto a nitrocellulose membrane (Bio-Rad) using the Thermo-Pierce Fast Semi-Dry Blotter. The membrane was then washed for 15 min in TBS plus Tween 20 (TBST) and blocked for 1 hr in TBST containing BSA. Next, membranes were incubated overnight at 4° C. under shaking conditions with the following 1° antibodies; TPP1 (1:250, Santa Cruz), β-actin (1:800; Abcam, Cambridge, Mass. The next day, membranes were washed in TBST for 1 hr, incubated in 2° antibodies against 1° antibody hosts (all 1:10,000; Jackson ImmunoResearch) for 1 hr at room temperature, washed for one more hour and visualized under the Odyssey® Infrared Imaging System (Li-COR, Lincoln, Nebr.).
Protein blots were analyzed using ImageJ (NIH, Bethesda, Md.) and bands were normalized to their respective β-actin loading controls. Data are representative of the average fold change with respect to control for three independent experiments.

[8] = tested on: TPP1; assay: TPP1 activity assay on cell extracts of treated mouse brain cells; format: cell-based; details: WT astrocytes; 25 μM gemfibrozil and 10 μM fenofibrate, 24 hrs
Description: TPP-I activity was assayed in 96-well format plates using the following modification of the method described by Vines and Warburton (6). Briefly, samples and substrate (40 μL) were mixed in individual wells of polystyrene 96-well plate (Nalge Nunc International). […] A3401; Sigma; diluted freshly from a 25 mmol/L stock solution in dimethyl sulfoxide stored at -20° C.) in 0.15 mol/L NaCl-1 g/L Triton X-100-0.1 mol/L sodium acetate, adjusted to pH 4.0 at 20° C. Plates were centrifuged briefly to dispel bubbles and placed in a 37° C. Plates were mixed for 10 s before each reading. The plates were read from the bottom using 360/20 nm excitation and 460/25 nm emission filters. Prior to the assay, the optimum substrate concentration and total protein in cell extract that can used to get best results were determined in the same manner described above, using different substrate concentrations and protein concentrations in the cell extract.

[9] = tested on: TPP1; assay: TPP1 immunofluorescence of brain sections after oral gemfibrozil in WT, PPARα−/− and PPARβ−/− mice; format: in vivo, mouse; details: oral 7.5 mg/kg body wt/day, 21 days
From the text: After 21 days of treatment, mice were sacrificed and their brains fixed, embedded, and processed. Sections were made from different brain regions and for immunofluorescence staining on fresh frozen sections, anti-mouse TPP1 (1:200), goat anti mouse GFAP (1:100) were used. The samples were mounted and observed under Olympus BX41 fluorescence microscope (26).
Once we confirmed the involvement of PPARα in the fibrate mediated upregulation of TPP1 protein, we further checked whether the same results could be replicated in in vivo settings. WT, PPARα^−/− and PPARβ^−/− mice from same background were treated orally for 21 days with 7.5 mg/kg body wt/day gemfibrozil dissolved in 0.1% methylcellulose, which was also used as vehicle. At the end of the treatment, the mice were killed and different regions of their brain, viz. Substantia nigra pars compacta, cortex, hippocampus, and dentate gyrus were sectioned, and immunofluorescence was performed for the presence of TPP1.

[10] = tested on: tripeptidyl peptidase 1 (TPP1); assay: Double-labeling for TPP1 and β-tubulin (FIG. 11); format: cell-based; details: 25 μM gemfibrozil and 10 μM fenofibrate, 24 hours
From the text: as §1

[11] = tested on: CLN2 knockdown mouse astrocytes; assay: Peroxide assay in CLN2 knockdown mouse astrocytes; format: cell-based; details: astrocytes transfected with CLN2 siRNA 36 hrs, gemfibrozil (25 μM) 6 hrs
Description: Mouse astrocytes were transfected with CLN2 siRNA (1.0 μg) for 36 hrs and treated with gemfibrozil (25 μM) for 6 hrs. Cells were then harvested and subjected to peroxide assay.

With `Cc1ccc(C)c(OCCCC(C)(C)C(=O)O)c1` [gemfibrozil] the “lysosomal proliferation (LysoTracker)” value [1] was “upregulation”, the “LAMP2 (double-labeling)” value [2] was “upregulation” and the “TPP1 (immunofluorescence)” value [3] was “significant increase”. For the same molecule, the “life span (percentage survival, Kaplan-Meier)” value [4] was “prolongs the life span”, the “lysosomal proliferation (LysoTracker)” value [5] was “upregulation” and the motor activity parameters [6] was “delays the loss of motor activity”. For the same molecule, the “TPP1 levels (immunoblot, densitometric analysis)” value ([7]; PPARα−/− astrocytes, 24 hrs) was “no significant increase”, the “TPP1 levels (Western blot, densitometric analysis)” value ([7]; RXRα siRNA transfected astrocytes, gemfibrozil (10 μM), RA (0.5 μM) alone and in combination) was “almost no enhancement” and the TPP1 enzymatic activity [8] was “drastically increased”. The “TPP1 in the dentate gyrus and CA1 region of the hippocampus (mostly non-neuronal cells)” value ([9]; PPARβ−/− mice) was “increased”, the “level of TPP1 in GFAP-positive astrocytes and tyrosine hydroxylase-positive neurons in the substantia nigra” value ([9]; PPARβ−/− mice) was “increased” and the “level of TPP1 in GFAP-positive cortical astrocytes and NeuN-positive cortical neurons” value ([9]; PPARβ−/− mice) was “markedly increased”. For the same molecule, the “TPP1 in the dentate gyrus and CA1 region of the hippocampus (mostly non-neuronal cells)” value ([9]; WT mice) was “increased”, the “level of TPP1 in GFAP-positive astrocytes and tyrosine hydroxylase-positive neurons in the substantia nigra” value ([9]; WT mice) was “increased” and the “level of TPP1 in GFAP-positive cortical astrocytes and NeuN-positive cortical neurons” value ([9]; WT mice) was “markedly increased”. For the same molecule, the “lysosomal marker protein TPP1 (double-labeling)” value [10] was “upregulation” and the peroxide production [11] was “reduces peroxide production”.

Reference: patent publication US11351142B2, “Composition and method for treating neuronal ceroid lipofuscinosis” (Rush University Medical Center, priority 2012, dated 2022)
